Earlier results on 1 compound are cited in patent US20090252806A1, “NANOPARTICULATE TACROLIMUS FORMULATIONS” (Elan Pharma International Ltd., priority 2004, published 2009).

For series [1] the following is noted: 18 fasted healthy volunteers; single oral dose of 3 mg, 7 mg, and 10 mg.
For series [2] the following is noted: oral.
The conditions of series [3]: for reduction of mean AUC relative to the fasted condition / reduction of mean Cmax relative to the fasted condition: healthy volunteers (N=16).
The conditions of series [4]: U.S. study; average (range).
[5] abbreviates: 15 minutes after a high fat (400 kcal, 34% fat) breakfast, 11 liver transplant patients.
[6] abbreviates: administered 1.5 hours following the meal.
[7] abbreviates: given immediately following the meal.

Like-named read-outs stand apart in the source and are kept apart here.

Take `C=CC[C@@H]1/C=C(\C)C[C@H](C)C[C@H](OC)[C@H]2O[C@@](O)(C(=O)C(=O)N3CCCC[C@H]3C(=O)O[C@H](/C(C)=C/[C@@H]3CC[C@@H](O)[C@H](OC)C3)[C@H](C)[C@@H](O)CC1=O)[C@H](C)C[C@@H]2OC` [tacrolimus, Tacrolimus]: in series [1], the “increase of Cmax and AUC with dose” value was “dose-proportional”. Further, the absolute bioavailability in series [2] (adult kidney transplant patients (N=26)) is 17±10%; in series [2] (adult liver transplant patients (N=17)), 22±6%. For the same compound, the solubility result is given as “very soluble” (in chloroform), “freely soluble” (in ethanol), “very soluble” (in methanol) and “practically insoluble” (in water). Also, the “decreased AUC as compared to a fasted state” value in series [3] (setting [5]) is on record as 27±18%. Also, the “decreased Cmax as compared to a fasted state” value in series [3] (setting [5]) is 50±19%. The “reduction of mean AUC relative to the fasted condition” value in series [3] (setting [6]) and in series [3] (setting [7]) was 39% in each case. Also, the results for the “reduction of mean Cmax relative to the fasted condition” value in series [3] (setting [6]) and in series [3] (setting [7]) were 63% and 71%, respectively. Further, the “lengthening of Tmax” value in series [3] (high-fat meal (848 kcal, 46% fat), 15 healthy volunteers) is 5 fold. For the same compound, in series [4], the “ratio of whole blood concentration to plasma concentration” value is given as 35 (range 12 to 67).
